Assay results taken from patent US20260042731A1, “(2,4-DICHLOROPHENOXY)ACETIC ACID ANALOGS” (CORTEVA AGRISCIENCE LLC, priority 2022, published 2026).
Several values for one entry are separate records, joined by “and”; a condition that tells them apart may be missing. Identical values can stand only once. Like-named read-outs stand apart in the source and are kept apart here.

Columns and labels:
[1] = test system: Abutilon theophrasti (ABUTH), velvetleaf; assay: Postemergence herbicide evaluation, growth of Abutilon theophrasti (ABUTH); format: in vivo; conditions: Abutilon theophrasti, post-emergence, read-out: AVE. ABUTH, percent reduction in plant size relative to the untreated control; for pest or weed control at 280 g/ha: 280 g ae/ha; for pest or weed control at 560 g/ha: 560 g ae/ha
[2] = test system: glyphosate resistant Conyza canadensis (L.) (ERICA), horseweed; assay: Postemergence herbicide evaluation, growth of Conyza canadensis (ERICA); format: in vivo; conditions: Erigeron canadensis, post-emergence, read-out: Ave. ERICA, percent reduction in plant size relative to the untreated control; for pest or weed control at 280 g/ha: 280 g ae/ha; for pest or weed control at 560 g/ha: 560 g ae/ha
[3] = test system: Ambrosia artemisiifolia (AMBEL), common ragweed; assay: Postemergence herbicide evaluation, growth of Ambrosia artemisiifolia (AMBEL); format: in vivo; conditions: Ambrosia artemisiifolia, post-emergence, read-out: AVE. AMBEL, percent reduction in plant size relative to the untreated control; for pest or weed control at 280 g/ha: 280 g ae/ha; for pest or weed control at 560 g/ha: 560 g ae/ha
[4] = test system: Chenopodium album (CHEAL), common lambsquarters; assay: Postemergence herbicide evaluation, growth of Chenopodium album (CHEAL); format: in vivo; conditions: Chenopodium album, post-emergence, read-out: Ave. CHEAL, percent reduction in plant size relative to the untreated control; for pest or weed control at 280 g/ha: 280 g ae/ha; for pest or weed control at 560 g/ha: 560 g ae/ha
[5] = test system: Amaranthus rudis (AMATA), tall water hemp; assay: Postemergence herbicide evaluation, growth of Amaranthus rudis (AMATA); format: in vivo; conditions: Amaranthus tuberculatus, post-emergence, read-out: Ave. AMATA, percent reduction in plant size relative to the untreated control; for pest or weed control at 280 g/ha: 280 g ae/ha; for pest or weed control at 560 g/ha: 560 g ae/ha
[6] = Volatility of compounds measured by thermogravimetric analysis (TGA); format: physicochemical
[7] = test system: weeds ABUTH, AMATA, AMBEL, CHEAL, ERICA; assay: Postemergence herbicide evaluation, overall average % weed control (ABUTH, AMATA, AMBEL, CHEAL, ERICA); format: in vivo; conditions: post-emergence, read-out: Overall Ave % Weed Control; for pest or weed control at 280 g/ha: 280 g ae/ha; for pest or weed control at 560 g/ha: 560 g ae/ha

SMILES | pest or weed control at 280 g/ha ([1]; 168 h, 7 DAA) [%] | pest or weed control at 560 g/ha ([1]; 168 h, 7 DAA) [%] | pest or weed control at 280 g/ha ([1]; 336 h, 14 DAA) [%] | pest or weed control at 560 g/ha ([1]; 336 h, 14 DAA) [%] | pest or weed control at 280 g/ha ([1]; 504 h, 21 DAA) [%] | pest or weed control at 560 g/ha ([1]; 504 h, 21 DAA) [%] | pest or weed control at 280 g/ha ([2]; 168 h, 7 DAA) [%] | pest or weed control at 560 g/ha ([2]; 168 h, 7 DAA) [%] | pest or weed control at 280 g/ha ([2]; 336 h, 14 DAA) [%] | pest or weed control at 560 g/ha ([2]; 336 h, 14 DAA) [%] | pest or weed control at 280 g/ha ([2]; 504 h, 21 DAA) [%] | pest or weed control at 560 g/ha ([2]; 504 h, 21 DAA) [%] | pest or weed control at 280 g/ha ([3]; 168 h, 7 DAA) [%] | pest or weed control at 560 g/ha ([3]; 168 h, 7 DAA) [%] | pest or weed control at 280 g/ha ([3]; 336 h, 14 DAA) [%] | pest or weed control at 560 g/ha ([3]; 336 h, 14 DAA) [%] | pest or weed control at 280 g/ha ([3]; 504 h, 21 DAA) [%] | pest or weed control at 560 g/ha ([3]; 504 h, 21 DAA) [%] | pest or weed control at 280 g/ha ([4]; 168 h, 7 DAA) [%] | pest or weed control at 560 g/ha ([4]; 168 h, 7 DAA) [%] | further results
O=C(COc1ccc(Cl)cc1Cl)Oc1ncc(Cl)cn1 [Compound E13] | 76.5 | 72.5 | 90 | 93.5 | 100 | 100 | 82.5 | 80 | 100 | 99 | 99.5 | 97.5 | 70 | 82.5 | 89.5 | 97.5 | 100 | 100 | 77.5 | 85 | pest or weed control at 280 g/ha ([4]; 336 h, 14 DAA): 95%; pest or weed control at 560 g/ha ([4]; 336 h, 14 DAA): 90%; pest or weed control at 280 g/ha ([4]; 504 h, 21 DAA): 96.5%; pest or weed control at 560 g/ha ([4]; 504 h, 21 DAA): 100%; pest or weed control at 280 g/ha ([5]; 168 h, 7 DAA): 85%; pest or weed control at 560 g/ha ([5]; 168 h, 7 DAA): 87.5%; pest or weed control at 280 g/ha ([5]; 336 h, 14 DAA): 82.5%; pest or weed control at 560 g/ha ([5]; 336 h, 14 DAA): 96%; pest or weed control at 280 g/ha ([5]; 504 h, 21 DAA): 86.5%; pest or weed control at 560 g/ha ([5]; 504 h, 21 DAA): 99%; TGA Data (rate of weight loss, volatility) [6]: 0.16 µg/min; pest or weed control at 280 g/ha ([7]; 168 h, 7 DAA): 78.3%; pest or weed control at 560 g/ha ([7]; 168 h, 7 DAA): 81.5%; pest or weed control at 280 g/ha ([7]; 336 h, 14 DAA): 91.4%; pest or weed control at 560 g/ha ([7]; 336 h, 14 DAA): 95.2%; pest or weed control at 280 g/ha ([7]; 504 h, 21 DAA): 96.5%; pest or weed control at 560 g/ha ([7]; 504 h, 21 DAA): 99.3%
N/C(=N\OC(=O)COc1ccc(Cl)cc1Cl)c1ccccc1 [Compound A3, N′-(2-(2,4-Dichlorophenoxy)acetoxy)benzimidamide] | 53 | 68 | 55 | 68 | 58 | 72 | 68 | 75 | 85 | 90 | 90 | 95 | 63 | 75 | 78 | 95 | 90 | 90 | 75 | 68 | pest or weed control at 280 g/ha ([4]; 336 h, 14 DAA): 83%; pest or weed control at 560 g/ha ([4]; 336 h, 14 DAA): 83%; pest or weed control at 280 g/ha ([4]; 504 h, 21 DAA): 85%; pest or weed control at 560 g/ha ([4]; 504 h, 21 DAA): 87%; pest or weed control at 280 g/ha ([5]; 168 h, 7 DAA): 75%; pest or weed control at 560 g/ha ([5]; 168 h, 7 DAA): 78%; pest or weed control at 280 g/ha ([5]; 336 h, 14 DAA): 75%; pest or weed control at 560 g/ha ([5]; 336 h, 14 DAA): 90%; pest or weed control at 280 g/ha ([5]; 504 h, 21 DAA): 83%; pest or weed control at 560 g/ha ([5]; 504 h, 21 DAA): 70%; TGA Data (rate of weight loss, volatility) [6]: 1 µg/min; pest or weed control at 280 g/ha ([7]; 168 h, 7 DAA): 67%; pest or weed control at 560 g/ha ([7]; 168 h, 7 DAA): 73%; pest or weed control at 280 g/ha ([7]; 336 h, 14 DAA): 75%; pest or weed control at 560 g/ha ([7]; 336 h, 14 DAA): 85%; pest or weed control at 280 g/ha ([7]; 504 h, 21 DAA): 81%; pest or weed control at 560 g/ha ([7]; 504 h, 21 DAA): 83%
O=C(COc1ccc(Cl)cc1Cl)O/N=C/c1ccccn1 [Compound A32] | 55 | 67.5 | 74 | 88.5 | 87.5 | 98.5 | 87.5 | 75 | 97 | 99.5 | 99 | 98 | 75 | 75 | 72.5 | 92.5 | 100 | 100 | 82.5 | 75 | pest or weed control at 280 g/ha ([4]; 336 h, 14 DAA): 97.5%; pest or weed control at 560 g/ha ([4]; 336 h, 14 DAA): 95%; pest or weed control at 280 g/ha ([4]; 504 h, 21 DAA): 97.5%; pest or weed control at 560 g/ha ([4]; 504 h, 21 DAA): 97.5%; pest or weed control at 280 g/ha ([5]; 168 h, 7 DAA): 70%; pest or weed control at 560 g/ha ([5]; 168 h, 7 DAA): 90%; pest or weed control at 280 g/ha ([5]; 336 h, 14 DAA): 96%; pest or weed control at 560 g/ha ([5]; 336 h, 14 DAA): 87.5%; pest or weed control at 280 g/ha ([5]; 504 h, 21 DAA): 60%; pest or weed control at 560 g/ha ([5]; 504 h, 21 DAA): 94%; TGA Data (rate of weight loss, volatility) [6]: 0.809 µg/min and 0.87 µg/min; pest or weed control at 280 g/ha ([7]; 168 h, 7 DAA): 74%; pest or weed control at 560 g/ha ([7]; 168 h, 7 DAA): 76.5%; pest or weed control at 280 g/ha ([7]; 336 h, 14 DAA): 87.4%; pest or weed control at 560 g/ha ([7]; 336 h, 14 DAA): 92.6%; pest or weed control at 280 g/ha ([7]; 504 h, 21 DAA): 88.8%; pest or weed control at 560 g/ha ([7]; 504 h, 21 DAA): 97.6%
CC(C)CONC(=O)COc1ccc(Cl)cc1Cl [Compound D22] | 72.5 | 82.5 | 93.5 | 98.5 | 100 | 99 | 85 | 85 | 100 | 99 | 100 | 100 | 90 | 85 | 90 | 97.5 | 100 | 100 | 80 | 82.5 | pest or weed control at 280 g/ha ([4]; 336 h, 14 DAA): 91.5%; pest or weed control at 560 g/ha ([4]; 336 h, 14 DAA): 99%; pest or weed control at 280 g/ha ([4]; 504 h, 21 DAA): 97.5%; pest or weed control at 560 g/ha ([4]; 504 h, 21 DAA): 97.5%; pest or weed control at 280 g/ha ([5]; 168 h, 7 DAA): 80%; pest or weed control at 560 g/ha ([5]; 168 h, 7 DAA): 92.5%; pest or weed control at 280 g/ha ([5]; 336 h, 14 DAA): 92.5%; pest or weed control at 560 g/ha ([5]; 336 h, 14 DAA): 92.5%; pest or weed control at 280 g/ha ([5]; 504 h, 21 DAA): 87.5%; pest or weed control at 560 g/ha ([5]; 504 h, 21 DAA): 100%; TGA Data (rate of weight loss, volatility) [6]: 0.2649 µg/min; pest or weed control at 280 g/ha ([7]; 168 h, 7 DAA): 81.5%; pest or weed control at 560 g/ha ([7]; 168 h, 7 DAA): 85.5%; pest or weed control at 280 g/ha ([7]; 336 h, 14 DAA): 93.5%; pest or weed control at 560 g/ha ([7]; 336 h, 14 DAA): 97.3%; pest or weed control at 280 g/ha ([7]; 504 h, 21 DAA): 97%; pest or weed control at 560 g/ha ([7]; 504 h, 21 DAA): 99.3%
